Measurements from ChEMBL document CHEMBL2062405, “Alkaloids from the root of Isatis indigotica” (J Nat Prod, 2012).
The source made the active and inactive calls. The calls are words filed in the database; no cut-off is given here.

Assays:
Bel-7402 = experiment: Cytotoxicity against human Bel7402 cells at 10 uM after 96 hrs by MTT assay; type: functional, cell-based
HCT-8 = experiment: Cytotoxicity against human HCT8 cells at 10 uM after 96 hrs by MTT assay; type: functional, cell-based
[1] = Hepatoprotective activity in rat WB-F344 cells assessed as inhibition of DL-Galactosamine-induced toxicity at 10 uM incubated for 1 hr prior to DL-Galactosamine-challenge measured after 24 hrs by MTT assay; type: functional
Human alphaherpesvirus 1 = experiment: Antiviral activity against Herpes simplex virus 1 at 10 uM; type: functional, organism-based
[2] = test system: Human immunodeficiency virus 1; experiment: Antiviral activity against HIV1 infected in 293T cells cotransfected with VSV-G at 10 uM after 48 hrs by ELISA; type: functional, organism-based
BGC-823 = experiment: Cytotoxicity against human BGC823 cells at 10 uM after 96 hrs by MTT assay; type: functional, cell-based
KETR3 = experiment: Cytotoxicity against human Ketr3 cells at 10 uM after 96 hrs by MTT assay; type: functional, cell-based
MCF7 = experiment: Cytotoxicity against human MCF7 cells at 10 uM after 96 hrs by MTT assay; type: functional, cell-based
A549 = experiment: Cytotoxicity against human A549 cells at 10 uM after 96 hrs by MTT assay; type: functional, cell-based
Influenza A virus = experiment: Antiviral activity against influenza A virus A/Hanfang/359/95 (H3N2) assessed as inhibition of virus-induced cytopathic effect in cell-based assay; type: functional, organism-based

Row | SMILES | Activity (Bel-7402) | Activity (HCT-8) | inhibition at 10 µM [1] [%] | Activity (Human alphaherpesvirus 1) | Activity [2] | Activity (BGC-823) | Activity (KETR3) | Activity (MCF7) | Activity (A549) | IC50 (Influenza A virus) [nM]
1 | COc1cccc2c1[C@@](O)(CC#N)C(=O)N2 | inactive | inactive | 47 | inactive | inactive | inactive | inactive | inactive | inactive | 
2 | O=C1/C(=C2\Nc3ccccc3C2=O)Nc2ccccc21 | inactive | inactive |  | inactive | inactive | inactive | inactive | inactive | inactive | 
3 | COc1cccc2[nH]cc(C(C#N)c3ccc(OC)c4c(CC#N)c[nH]c34)c12 (single isomer, unassigned) | inactive | inactive |  | inactive | inactive | inactive | inactive | inactive | inactive | 3700
4 | O=C1CC2(O)c3ccccc3N3C(=O)c4ccccc4N1C32 (stereo not given) |  |  | 47 |  |  |  |  |  |  | 
5 | N#CCc1c[nH]c2ccccc12 | inactive | inactive |  | inactive | inactive | inactive | inactive | inactive | inactive | 
6 | O=Cc1c[nH]c2ccccc12 | inactive | inactive |  | inactive | inactive | inactive | inactive | inactive | inactive | 
7 | N#C/C=C1/C(=O)Nc2cccc(O)c21 | inactive | inactive |  | inactive | inactive | inactive | inactive | inactive | inactive | 
8 | OC[C@H]1O[C@@H](Oc2c[nH]c3ccccc23)[C@H](O)[C@@H](O)[C@@H]1O | inactive | inactive |  | inactive | inactive | inactive | inactive | inactive | inactive | 
9 | Oc1ccc2[nH]c(O)cc2c1 | inactive | inactive |  | inactive | inactive | inactive | inactive | inactive | inactive | 
10 | COC(=O)c1cc(OC)c2c(c1-c1c(CO)cc(OC)c3c1OCO3)OCO2 [BICYCLOL] |  |  | 42 |  |  |  |  |  |  | 
11 | CCOC(=O)C1=C[C@@H](OC(CC)CC)[C@H](NC(C)=O)[C@@H](N)C1 [OSELTAMIVIR] |  |  |  |  |  |  |  |  |  | 1230
12 | COc1cccc2c1[C@@](O)(CC(N)=O)C(=O)N2 | inactive | inactive |  | inactive | inactive | inactive | inactive | inactive | inactive | 
13 | COn1cc(CC#N)c2ccccc21 | inactive | inactive |  | inactive | inactive | inactive | inactive | inactive | inactive | 
14 | O=C1Nc2ccccc2/C1=C1/Nc2ccccc2C1=O | inactive | inactive |  | inactive | inactive | inactive | inactive | inactive | inactive | 
15 | NC(=O)[C@@H]1CC(=O)Nc2ccccc21 | inactive | inactive | 45 | inactive | inactive | inactive | inactive | inactive | inactive | 
16 | N#CC[C@@]1(O)C(=O)Nc2cccc(O)c21 | inactive | inactive |  | inactive | inactive | inactive | inactive | inactive | inactive | 
